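Tested at 5 concentrations; 48 h exposure; 96-well plates; endpoints linearly interpolated, else capped at highest concentration. The concentration for 50% growth inhibition is given as GI50. At the TGI there is no net growth.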
Experiments:
Assay in all cases: NCI anticancer screen, dose series, 48 h
[1] = system: KM12 colon
[2] = system: T-47D breast
[3] = system: OVCAR-4 ovarian
[4] = system: NCI/ADR-RES ovarian
[5] = system: MDA-MB-231 breast
[6] = system: A549 NSCLC
[7] = system: RXF 393 renal
[8] = system: NCI-H226 lung
[9] = system: MCF7 breast
[10] = system: TK-10 renal
[11] = system: UACC-257 melanoma
[12] = system: OVCAR-5 ovarian
[13] = system: EKVX NSCLC
[14] = system: UACC-62 melanoma
[15] = system: SK-MEL-5 melanoma
[16] = system: ACHN renal
[17] = system: SK-OV-3 ovarian
[18] = system: LOX IMVI melanoma
[19] = system: CCRF-CEM leukemia
[20] = system: HOP-92 NSCLC
[21] = system: U251 CNS
[22] = system: NCI-H23 lung
[23] = system: MOLT-4 leukemia
[24] = system: PC-3 prostate
[25] = system: SW-620 colon
[26] = system: UO-31 renal
[27] = system: MALME-3M melanoma

Question: For Nc1cc(-c2ccccc2)ccc1O, which GI50 [1] is on record?
Answer: Its GI50 is 58.4 µM.

Question: What about the TGI [1] of the same molecule?
Answer: The TGI was greater than 100 µM.

Question: What about the GI50 [2] of the same molecule?
Answer: The GI50 was 55.3 µM.

Question: And the TGI [2]?
Answer: The TGI was greater than 100 µM.

Question: What about the GI50 [3] of the same molecule?
Answer: The GI50 was 36.5 µM.

Question: And the TGI [3]?
Answer: Its TGI is greater than 100 µM.

Question: What about the GI50 [4] of the same molecule?
Answer: Its GI50 is 45 µM.

Question: What about the TGI [4] of the same molecule?
Answer: The TGI was greater than 100 µM.

Question: What about the GI50 [5] of the same molecule?
Answer: Its GI50 is 7.32 µM.

Question: And the TGI [5]?
Answer: The TGI was greater than 100 µM.

Question: What about the GI50 [6] of the same molecule?
Answer: The GI50 was greater than 100 µM.

Question: And the TGI [6]?
Answer: The TGI was greater than 100 µM.

Question: What about the GI50 [7] of the same molecule?
Answer: Its GI50 is greater than 100 µM.

Question: And the TGI [7]?
Answer: The TGI was greater than 100 µM.

Question: What about the GI50 [8] of the same molecule?
Answer: Its GI50 is greater than 100 µM.

Question: And the TGI [8]?
Answer: Its TGI is greater than 100 µM.

Question: What about the GI50 [9] of the same molecule?
Answer: Its GI50 is greater than 100 µM.

Question: What about the TGI [9] of the same molecule?
Answer: The TGI was greater than 100 µM.

Question: And the GI50 [10]?
Answer: The GI50 was greater than 100 µM.

Question: What about the TGI [10] of the same molecule?
Answer: The TGI was greater than 100 µM.

Question: What about the GI50 [11] of the same molecule?
Answer: The GI50 was greater than 100 µM.

Question: And the TGI [11]?
Answer: Its TGI is greater than 100 µM.

Question: And the GI50 [12]?
Answer: Its GI50 is greater than 100 µM.

Question: And the TGI [12]?
Answer: The TGI was greater than 100 µM.

Question: What about the GI50 [13] of the same molecule?
Answer: Its GI50 is 82.2 µM.

Question: And the TGI [13]?
Answer: The TGI was greater than 100 µM.

Question: And the GI50 [14]?
Answer: Its GI50 is 37.3 µM.

Question: What about the TGI [14] of the same molecule?
Answer: Its TGI is greater than 100 µM.

Question: What about the GI50 [15] of the same molecule?
Answer: The GI50 was greater than 100 µM.

Question: And the TGI [15]?
Answer: The TGI was greater than 100 µM.

Question: And the GI50 [16]?
Answer: The GI50 was 54.6 µM.

Question: What about the TGI [16] of the same molecule?
Answer: Its TGI is greater than 100 µM.

Question: And the GI50 [17]?
Answer: The GI50 was greater than 100 µM.

Question: And the TGI [17]?
Answer: The TGI was greater than 100 µM.

Question: What about the GI50 [18] of the same molecule?
Answer: Its GI50 is 62.9 µM.

Question: What about the TGI [18] of the same molecule?
Answer: Its TGI is greater than 100 µM.

Question: What about the GI50 [19] of the same molecule?
Answer: Its GI50 is 23.2 µM.

Question: What about the TGI [19] of the same molecule?
Answer: Its TGI is greater than 100 µM.

Question: And the GI50 [20]?
Answer: The GI50 was greater than 100 µM.

Question: What about the TGI [20] of the same molecule?
Answer: Its TGI is greater than 100 µM.

Question: And the GI50 [21]?
Answer: Its GI50 is greater than 100 µM.

Question: What about the TGI [21] of the same molecule?
Answer: The TGI was greater than 100 µM.

Question: And the GI50 [22]?
Answer: The GI50 was greater than 100 µM.

Question: And the TGI [22]?
Answer: Its TGI is greater than 100 µM.

Question: And the GI50 [23]?
Answer: The GI50 was 51.9 µM.

Question: And the TGI [23]?
Answer: Its TGI is greater than 100 µM.

Question: What about the GI50 [24] of the same molecule?
Answer: Its GI50 is 21.6 µM.

Question: What about the TGI [24] of the same molecule?
Answer: Its TGI is greater than 100 µM.

Question: And the GI50 [25]?
Answer: Its GI50 is greater than 100 µM.

Question: What about the TGI [25] of the same molecule?
Answer: Its TGI is greater than 100 µM.

Question: What about the GI50 [26] of the same molecule?
Answer: Its GI50 is 34 µM.

Question: What about the TGI [26] of the same molecule?
Answer: Its TGI is greater than 100 µM.

Question: What about the GI50 [27] of the same molecule?
Answer: Its GI50 is greater than 100 µM.

Question: And the TGI [27]?
Answer: Its TGI is greater than 100 µM.
